Measurements reported in ChEMBL document CHEMBL6121010, “Novel antileukemic compound with sub-micromolar potency against STAT5 addicted myeloid leukemia cells” (Eur J Med Chem, 2025).
The source made the active and inactive calls. No cut-off for these calls is given here.

How the values were obtained:
KU812 cell line [1] = experiment: Antileukemic activity against human KU812 cell line assessed as inhibition of cell growth incubated for 48 hrs by MTT assay; format: functional, cell-based; settings: KU812, 48 h
MV4-11 [2] = experiment: Antileukemic activity against human MV4-11 cell line assessed as inhibition of cell growth incubated for 48 hrs by MTT assay; format: functional, cell-based; settings: MV4-11, 48 h
K562 [3] = experiment: Antileukemic activity against human K562 assessed as cell viability incubated for 48 hrs by MTT assay; format: functional, cell-based; settings: K562, 48 h
KCL-22 [4] = experiment: Antileukemic activity against human KCL-22 assessed as cell viability incubated for 48 hrs by MTT assay; format: functional, cell-based; settings: KCL-22, 48 h
MOLM-13 [5] = experiment: Antileukemic activity against human MOLM-13 assessed as cell viability incubated for 48 hrs by MTT assay; format: functional, cell-based; settings: MOLM-13, 48 h
[6] = Cytotoxicity against human HS-27A assessed as cell viability incubated for 48 hrs by MTT assay; format: toxicity, cell-based; settings: HS-27A cells
[7] = Cytotoxicity against Bone marrow cell (unknown origin) assessed as cell viability incubated for 48 hrs by MTT assay; format: toxicity, cell-based; settings: bone marrow cells (unknown origin)
K562 [8] = experiment: Antiproliferative activity against human K562 cells measured after 72 hrs by MTT assay; format: functional, cell-based
KU812 cell line [9] = experiment: Antiproliferative activity against human KU812 cell line measured after 72 hrs by MTT assay; format: functional, cell-based
KCL-22 [10] = experiment: Antiproliferative activity against human KCL-22 cells measured after 72 hrs by MTT assay; format: functional, cell-based
MV4-11 [11] = experiment: Antiproliferative activity against human MV4-11 cells measured after 72 hrs by MTT assay; format: functional, cell-based
MOLM-13 [12] = experiment: Antiproliferative activity against human MOLM-13 cells measured after 72 hrs by MTT assay; format: functional, cell-based
[13] = Potency index, ratio of Pimozide EC50 to test compound EC50 for antileukemic activity against human KU812 cell line assessed as inhibition of cell growth incubated for 48 hrs by MTT assay; format: functional
[14] = Potency index, ratio of Pimozide EC50 to test compound EC50 for antileukemic activity against human K562 cells assessed as inhibition of cell growth incubated for 48 hrs by MTT assay; format: functional
[15] = Potency index, ratio of Pimozide EC50 to test compound EC50 for antileukemic activity against human KCL-22 cells assessed as inhibition of cell growth incubated for 48 hrs by MTT assay; format: functional
MV4-11 [16] = experiment: Potency index, ratio of Pimozide EC50 to test compound EC50 for antileukemic activity against human MV4-11 cells assessed as inhibition of cell growth incubated for 48 hrs by MTT assay; format: functional
[17] = Potency index, ratio of Pimozide EC50 to test compound EC50 for antileukemic activity against human MOLM-13 cells assessed as inhibition of cell growth incubated for 48 hrs by MTT assay; format: functional
[18] = molecular target: T1, Signal transducer and activator of transcription 5A (Homo sapiens) (UniProt P42229); experiment: Inhibition of STAT5A phosphorylation in human KU812 cell line incubated for 24 hrs by Western blotting analysis; format: cell-based
T1 sequence (whole entry): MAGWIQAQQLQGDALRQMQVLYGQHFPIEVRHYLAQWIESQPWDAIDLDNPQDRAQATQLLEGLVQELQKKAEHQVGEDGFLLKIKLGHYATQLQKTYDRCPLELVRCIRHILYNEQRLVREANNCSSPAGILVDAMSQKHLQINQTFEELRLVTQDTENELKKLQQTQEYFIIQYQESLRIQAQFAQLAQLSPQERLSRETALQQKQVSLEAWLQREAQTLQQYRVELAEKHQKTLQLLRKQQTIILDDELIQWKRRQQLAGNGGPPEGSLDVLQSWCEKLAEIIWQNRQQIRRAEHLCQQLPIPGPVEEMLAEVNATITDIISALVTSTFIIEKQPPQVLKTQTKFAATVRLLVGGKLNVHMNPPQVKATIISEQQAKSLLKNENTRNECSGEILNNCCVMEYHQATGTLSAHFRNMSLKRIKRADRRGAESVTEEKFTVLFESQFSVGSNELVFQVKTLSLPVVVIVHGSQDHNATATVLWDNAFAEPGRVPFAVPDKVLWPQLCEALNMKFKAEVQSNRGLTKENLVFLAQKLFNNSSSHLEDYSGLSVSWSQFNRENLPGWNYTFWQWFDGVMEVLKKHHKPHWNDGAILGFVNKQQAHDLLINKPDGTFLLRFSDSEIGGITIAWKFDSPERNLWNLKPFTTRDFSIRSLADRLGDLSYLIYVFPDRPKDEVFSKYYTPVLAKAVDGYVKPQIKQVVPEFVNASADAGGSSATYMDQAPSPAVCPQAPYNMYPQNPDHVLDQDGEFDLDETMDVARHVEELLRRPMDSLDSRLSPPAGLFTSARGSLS

[19] = molecular target: T2, Signal transducer and activator of transcription 5B (Homo sapiens) (UniProt P51692); experiment: Inhibition of STAT5B phosphorylation in human KU812 cell line incubated for 24 hrs by Western blotting analysis; format: cell-based
T2 sequence (whole entry): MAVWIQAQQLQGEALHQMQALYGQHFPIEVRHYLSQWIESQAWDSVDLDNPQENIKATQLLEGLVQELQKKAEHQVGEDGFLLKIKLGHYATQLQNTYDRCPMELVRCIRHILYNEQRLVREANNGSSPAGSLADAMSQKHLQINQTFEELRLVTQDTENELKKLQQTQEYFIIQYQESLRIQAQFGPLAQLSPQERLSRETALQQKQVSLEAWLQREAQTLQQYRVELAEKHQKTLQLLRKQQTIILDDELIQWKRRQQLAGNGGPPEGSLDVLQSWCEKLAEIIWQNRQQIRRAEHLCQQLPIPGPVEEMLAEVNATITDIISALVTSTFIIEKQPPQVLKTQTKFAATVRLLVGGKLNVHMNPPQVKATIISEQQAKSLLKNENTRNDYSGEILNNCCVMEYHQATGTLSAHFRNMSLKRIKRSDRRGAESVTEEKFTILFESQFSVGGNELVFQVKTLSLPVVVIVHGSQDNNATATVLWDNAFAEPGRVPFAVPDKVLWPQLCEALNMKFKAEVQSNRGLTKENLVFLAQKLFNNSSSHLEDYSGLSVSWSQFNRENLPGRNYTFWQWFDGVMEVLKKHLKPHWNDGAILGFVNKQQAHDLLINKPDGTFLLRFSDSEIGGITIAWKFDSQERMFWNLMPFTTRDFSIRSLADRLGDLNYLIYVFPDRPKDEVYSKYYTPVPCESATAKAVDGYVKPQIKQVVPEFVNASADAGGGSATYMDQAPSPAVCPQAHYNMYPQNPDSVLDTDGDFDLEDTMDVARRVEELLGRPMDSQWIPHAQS

[20] = molecular target: T1, Signal transducer and activator of transcription 5A (Homo sapiens); experiment: Inhibition of STAT5A phosphorylation in human MV4-11 cells incubated for 24 hrs by Western blotting analysis; format: cell-based
[21] = molecular target: T2, Signal transducer and activator of transcription 5B (Homo sapiens); experiment: Inhibition of STAT5B phosphorylation in human MV4-11 cells incubated for 24 hrs by Western blotting analysis; format: cell-based
MV4-11 [22] = experiment: Downregulation of STAT5B expression in human MV4-11 cells by Western blot analysis; format: functional, cell-based
KU812 [23] = experiment: Downregulation of STAT5B expression in human KU812 cell line by Western blot analysis; format: functional, cell-based
MV4-11 [24] = experiment: Downregulation of STAT5A expression in human MV4-11 cells by Western blot analysis; format: functional, cell-based
KU812 [25] = experiment: Downregulation of STAT5A expression in human KU812 cell line by Western blot analysis; format: functional, cell-based
BaF3 = experiment: Downregulation of STAT5B N642H mutant expression in mouse BaF3 cells incubated for 24 hrs by Western blot analysis; format: functional, cell-based; settings: dose <= 5.0 µM
K562-IMA[r] [26] = experiment: Antiproliferative activity against human Imatinib-resistant K562 cells assessed as inhibition of cell growth at 100 nM measured after 72 hrs by MTT assay; format: functional, cell-based
[27] = molecular target: T1, Signal transducer and activator of transcription 5A (Homo sapiens); experiment: Inhibition of STAT5A phosphorylation in human Imatinib-resistant K562 cells up to 5 uM incubated for 24 hrs by Western blotting analysis; format: cell-based
[28] = molecular target: T2, Signal transducer and activator of transcription 5B (Homo sapiens); experiment: Inhibition of STAT5B phosphorylation in human Imatinib-resistant K562 cells up to 5 uM incubated for 24 hrs by Western blotting analysis; format: cell-based
K562-IMA[r] [29] = experiment: Downregulation of STAT5A expression in human Imatinib-resistant K562 cells by Western blot analysis; format: functional, cell-based
K562-IMA[r] [30] = experiment: Downregulation of STAT5B expression in human Imatinib-resistant K562 cells by Western blot analysis; format: functional, cell-based
KU812 cell line [31] = experiment: Antileukemic activity against human KU812 cell line co-cultured with human HS-27A in presence of Imatinib; format: functional, cell-based
MV4-11 [32] = experiment: Antileukemic activity against human MV4-11 cells co-cultured with human HS-27A in presence of Imatinib; format: functional, cell-based
KU812 cell line [33] = experiment: Antileukemic activity against human KU812 cell line co-cultured with human HS-27A in presence of Ara-c; format: functional, cell-based
MV4-11 [34] = experiment: Antileukemic activity against human MV4-11 cells co-cultured with human HS-27A in presence of Ara-c; format: functional, cell-based

Compound `CC1(C)CCN(CCOc2ccc3[nH]ccc3c2)c2cccc(-c3cnc(N)nc3)c21` has an EC50 (KU812 cell line [1]) of 600 nM, an EC50 (MV4-11 [2]) of 300 nM and an EC50 (K562 [3]) of 800 nM. It also gave an EC50 (KCL-22 [4]) of 500 nM, an EC50 (MOLM-13 [5]) of 300 nM and an EC50 at 48 h [6] of 44100 nM. For the same compound, the EC50 at 48 h [7] was 12000 nM, the Activity (K562 [8]) was “Active” and the Activity (KU812 cell line [9]) was “Active”. For the same compound, the Activity (KCL-22 [10]) was “Active”, the Activity (MV4-11 [11]) was “Active” and the Activity (MOLM-13 [12]) was “Active”. The “Ratio EC50” value [13] was 5, the “Ratio EC50” value [14] was 5 and the “Ratio EC50” value [15] was 5. The “Ratio EC50” value (MV4-11 [16]) was 5, the “Ratio EC50” value [17] was 5 and the inhibition [18] was “Active”. The inhibition [19] was “Active”, the inhibition [20] was “Active” and the inhibition [21] was “Active”. The Activity (MV4-11 [22]) was “Active”, the Activity (KU812 [23]) was “Active” and the Activity (MV4-11 [24]) was “inactive”. For the same compound, the Activity (KU812 [25]) was “inactive”, the Activity (BaF3) was “Dose-dependent-effect” and the Activity (K562-IMA[r] [26]) was “Active”. For the same compound, the inhibition [27] was “Active”, the inhibition [28] was “Active” and the Activity (K562-IMA[r] [29]) was “Active”. For the same compound, the Activity (K562-IMA[r] [30]) was “Active”, the Activity (KU812 cell line [31]) was “Active” and the Activity (MV4-11 [32]) was “Active”. The Activity (KU812 cell line [33]) was “Active” and the Activity (MV4-11 [34]) was “Active”.
